The source of these data is patent US20080090834A1, “SELECTIVE AZOLE PDE10A INHIBITOR COMPOUNDS” (Pfizer Inc, priority 2006, published 2008).

Each structure is given as a SMILES string. Where a name gives a salt, the structure may show the parent alone.

The target in the assay is T1, cloned rat PDE10A full-length enzyme (Rattus norvegicus, UniProt Q9QYJ6).
T1 construct: cloned rat PDE10A full-length enzyme grown in transfected Sf9 insect cells; made in house; host or cells: Sf9 insect cells
T1 sequence (Q9QYJ6 1-794): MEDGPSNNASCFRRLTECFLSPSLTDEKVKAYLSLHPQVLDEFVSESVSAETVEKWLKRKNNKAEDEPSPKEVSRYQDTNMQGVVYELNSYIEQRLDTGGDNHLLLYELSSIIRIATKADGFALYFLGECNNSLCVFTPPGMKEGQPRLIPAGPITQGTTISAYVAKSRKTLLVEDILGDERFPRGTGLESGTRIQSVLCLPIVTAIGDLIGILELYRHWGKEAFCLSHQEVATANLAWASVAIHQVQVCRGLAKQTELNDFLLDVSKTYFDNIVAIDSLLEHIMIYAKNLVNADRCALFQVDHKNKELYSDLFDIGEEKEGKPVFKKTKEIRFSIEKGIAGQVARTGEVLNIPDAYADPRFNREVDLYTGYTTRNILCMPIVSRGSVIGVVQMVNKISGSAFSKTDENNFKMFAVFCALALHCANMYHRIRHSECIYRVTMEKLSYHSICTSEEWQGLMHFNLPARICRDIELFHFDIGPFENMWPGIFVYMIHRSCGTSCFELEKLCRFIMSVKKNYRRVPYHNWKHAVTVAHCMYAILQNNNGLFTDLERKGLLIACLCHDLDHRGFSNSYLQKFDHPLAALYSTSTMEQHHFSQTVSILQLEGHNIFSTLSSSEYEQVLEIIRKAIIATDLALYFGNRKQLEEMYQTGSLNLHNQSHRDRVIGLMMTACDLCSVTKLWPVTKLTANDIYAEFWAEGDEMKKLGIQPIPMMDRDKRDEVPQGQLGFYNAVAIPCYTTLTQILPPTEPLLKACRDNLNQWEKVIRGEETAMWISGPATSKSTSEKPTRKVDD
The experiment in a line: PDE10 enzyme inhibition, [3H]cAMP scintillation proximity assay. In kind it is biochemical. The settings on record: rat PDE10A from Sf9 cells, 20 nM [3H]cAMP, SPA beads, 20 minute incubation at room temperature. As to the method:
Compounds of the present invention were evaluated for ability to inhibit PDE10 enzyme with the following Assay procedure
The enzyme used in the procedure was cloned rat PDE10A full-length enzyme grown in transfected Sf9 insect cells. Cloned enzyme was extracted from homogenized cell pellets and stored frozen in homogenizing buffer until use. Compounds were initially dissolved in 100% DMSO and diluted out in 20 percent DMSO/water solution. Final concentration of DMSO in the assay was 2 percent as compounds were tested in triplicate in 96 well plates. Compound solution was placed in well, then tritiated cyclic AMP (New England Nuclear NET275) in assay buffer was added at 20 nM concentration. Then PDE10 enzyme in assay buffer of 50 mM Tris, 8.3 mM MgCl2, pH 7.5 at room temperature was added for a final assay volume of 100 ul. Concentration of enzyme was added such that less than 10 percent of [3H]cAMP at 20 nM was converted to detectable end product, [3H]AMP bound to SPA (Scintillation Proximity Assay) beads. Phosphodiesterase scintillation proximity yttrium silicate beads from Amersham Biosciences (RPNQ0150) were added (50 ul at 20 mg/ml) after a 20 minute incubation at room temperature. Zinc sulphate as a component of the beads stops the phosphodiesterase reaction.
Non-specific binding to SPA beads was determined by addition of 1 uM papaverine. Total conversion by enzyme without inhibitor of [3H]cAMP to [3H]AMP, as detected by scintillation of [3H]AMP bound to yttrium silicate beads, was determined in the presence of vehicle-only.
In general terms: In a scintillation proximity assay essentially only radioactivity close to the scintillant gives light.
In general, IC50 refers to the concentration needed to halve the response being measured. A high value points to weaker potency in that assay. On to `COc1nc2cccnc2n1-c1ccc(-c2nc(-c3ccccn3)cn2-c2ccc(C)nc2)cc1` [Example 60, 2-methoxy-3-(4-(1-(6-methylpyridin-3-yl)-4-(pyridin-2-yl)-1H-imidazol-2-yl)phenyl)-3H-imidazo[4,5-b]pyridine], for which the IC50 turned out to be 0.388 nM.

Regarding `Cc1ccc(-n2cc(-c3ncc(C)s3)nc2-c2ccc(-n3ccc4cccnc43)cc2)cn1` [Example 61, 1-(4-(1-(6-methylpyridin-3-yl)-4(5-methylthiazol-2-yl)-1H-imidazol-2-yl)phenyl)-1H-pyrrolo[2,3-b]pyridine], half-maximal inhibition (IC50) required 54.8 nM.

Molecule `Clc1ccc(-c2cn(-c3cncnc3)c(-c3ccc(-n4ccc5cccnc54)cc3)n2)s1` [Example 62, 1-(4-(4-(5-chlorothiophen-2-yl)-1-(pyrimidin-5-yl)-1H-imidazol-2-yl)phenyl)-1H-pyrrolo[2,3-b]pyridine] came in with an IC50 of 65.1 nM.

The molecule `Cc1csc(-c2cn(-c3cncnc3)c(-c3ccc(-n4ccc5cccnc54)cc3)n2)n1` [Example 63] gave an IC50 of 13.8 nM.

In turn, `Cc1ccc(-n2cc(-c3ccc(F)s3)nc2-c2ccc(-n3ccc4cccnc43)cc2)cn1` [Example 64, 1-(4-(4-(5-fluorothiophen-2-yl)-1-(6-methylpyridin-3-yl)-1H-imidazol-2-yl)phenyl)-1H-pyrrolo[2,3-b]pyridine] returned an IC50 of 6.59 nM.

`Cc1cc(-n2cc(-c3nccn3C)nc2-c2ccc(-n3ccc4cccnc43)cc2)ccn1` [Example 66, 1-(4-(4-(1-methyl-1H-imidazol-2-yl)-1-(2-methylpyridin-4-yl)-1H-imidazol-2-yl)phenyl)-1H-pyrrolo[2,3-b]pyridine]: it took 112 nM to reach half-maximal inhibition (IC50).

`Cn1ccnc1-c1cn(-c2cncnc2)c(-c2ccc(-n3ccc4cccnc43)cc2)n1` [Example 67] gave an IC50 of 274 nM.

Consider `Cc1cc(-n2cc(-c3cccnc3)nc2-c2ccc(-n3ccc4cccnc43)cc2)ccn1` [Example 68, 1-(4-(1-(2-methylpyridin-4-yl)-4-(pyridin-3-yl)-1H-imidazol-2-yl)phenyl)-1H-pyrrolo[2,3-b]pyridine bis-TFA salt], for which the IC50 amounted to 5.1 nM.

`Cc1cc(-n2cc(-c3ccncc3)nc2-c2ccc(-n3ccc4cccnc43)cc2)ccn1` [Example 69, 1-(4-(1-(2-methylpyridin-4-yl-4-(pyridin-4-yl)-1H-imidazol-2-yl)phenyl)-1H-pyrrolo-[2,3-b]pyridinebis-TFA salt] displayed an IC50 of 89.7 nM.

In the case of `Clc1ccc(-c2ccc(-c3nc(-c4ccccn4)cn3-c3cncnc3)cc2)cc1Cl` [Example 70, 5-(2-(4-(3,4-dichloropheny)phenyl)-4-(pyridin-2-yl)-1H-imidazol-1-yl)pyrimidine], the IC50 was determined as 216 nM.

In turn, `Clc1ccc(-c2ccc(-c3nc(-c4ccccn4)cn3-c3cncnc3)cc2)cc1` [Example 71, 5-(2-(4-(4-chlorophenyl)phenyl)-4-(pyridin-2-yl)-1H-imidazol-1-yl)pyrimidine] returned an IC50 of 67.6 nM.

The molecule `c1ccc(-c2cn(-c3cncnc3)c(-c3ccc(-c4cccnc4)cc3)n2)nc1` [Example 72] gave an IC50 of 160 nM.

Molecule `c1ccc(-c2cn(-c3cncnc3)c(-c3ccc(-c4ccncc4)cc3)n2)nc1` [Example 73] yielded an IC50 of 74.3 nM.

Consider `Cc1ccc(-n2cc(-c3ccccn3)nc2-c2ccc(-n3ccc4cncnc43)cc2)cn1` [Example 74, 7-(4-(1-(6-methylpyridin-3-yl)-4-(pyridin-2-yl)-1H-imidazol-2-yl)phenyl)-7H-pyrrolo[2,3-d]pyrimidine], for which half-maximal inhibition (IC50) required 2.27 nM.

For `Cc1ccc(-n2cc(-c3ccccn3)nc2-c2ccc(-n3cc(C)c4nccnc43)cc2)cn1` [Example 75], the IC50 was 2.41 nM.

`c1cncc(-n2cc(-c3nc4ccccc4s3)nc2-c2ccc(-n3ccc4cccnc43)cc2)c1` [Example 76, 1-(4-(4-benzo[d]thiazol-2-yl)-1-(pyridin-3-yl)-1H-b]pyridine] showed an IC50 of 544 nM.

On to `COc1ccnc2c(-c3ccc(-c4nc(-c5ccccn5)cn4-c4cccnc4)cc3)cc(C)cc12` [Example 77], for which the IC50 was 156 nM.

`c1ccc(-c2cn(-c3cccnc3)c(-c3ccc(-c4nccc5cccnc45)cc3)n2)nc1` [Example 78] displayed an IC50 of 3.26 nM.

In turn, `c1ccc(-c2cn(-c3cccnc3)c(-c3ccc(-c4cccc5cccnc45)cc3)n2)nc1` [Example 79, 8-(4-(4-(pyridin-2-yl)-1-(pyridin-3-yl)-1H-imidazol-2-yl)phenyl)quinoline] registered an IC50 of 3.94 nM.

Take `COc1cc(-c2ccc(-c3nc(-c4ccccn4)cn3-c3cccnc3)cc2)c2ncccc2c1` [Example 80, 6-methoxy-8-(4-(4-(pyridin-2-yl)-1-(pyridin-3-yl)-1H-imidazol-2-yl)phenyl)quinoline]: the IC50 amounted to 0.794 nM.

For the molecule `Cc1ccc(-n2cc(-c3nccs3)nc2-c2ccc(-n3c(C(F)F)nc4cccnc43)cc2)cn1` [Example 84], the IC50 amounted to 0.73 nM.

`Cc1nc(-c2cn(-c3cncnc3)c(-c3ccc(-n4ccc5cccnc54)cc3)n2)sc1C` [Example 85] registered an IC50 of 74.2 nM.

`Cc1ccc(-n2cc(-c3nccs3)nc2-c2ccc(-n3c(C(F)(F)F)nc4cccnc43)cc2)cn1` [Example 87] gave an IC50 below 1000 nM.

The molecule `COc1nc2cccnc2n1-c1ccc(-c2nc(-c3nc(C)cs3)cn2-c2ccc(C)nc2)cc1` [Example 90, 2-methoxy-3-(4-(1-(6-methylpyridin-3-yl)-4-(4-methylthiazol-2-yl)-1H-imidazol-2-yl)phenyl)-3H-imidazol[4,5-b]pyridine] gave an IC50 of 0.287 nM.

Turning to `CCCOc1nc2cccnc2n1-c1ccc(-c2nc(-c3ccccn3)cn2-c2ccc(C)nc2)cc1` [Example 91, 3-(4-(1-(6-methylpyridin-3-yl)-4-(pyridin-2-yl)-1H-imidazol-2-yl)phenyl)-2-propoxy-3H-imidazo[4,5-b]pyridine], half-maximal inhibition (IC50) required 0.741 nM.

Take `COc1nc2cccnc2n1-c1ccc(-c2nc(-c3cccs3)cn2-c2ccc(C)nc2)cc1` [Example 93, 2-methoxy-3-(4-(1-(6-methylpyridin-3-yl)-4-(thiophen-2-yl)-1H-imidazol-2-yl)phenyl)-3H-imidazo[4,5-b]pyridine]: the IC50 was below 0.424 nM.

With `CCOc1nc2cccnc2n1-c1ccc(-c2nc(-c3ccccn3)cn2-c2ccc(C)nc2)cc1` [Example 94, 2-ethoxy-3-(4-(1-(6-methylpyridin-3-yl)-4-(pyridin-2-yl)-1H-imidazol-2-yl)phenyl)-3H-imidazol[4,5-b]pyridine], inhibition was half-maximal at 1.02 nM (IC50).

For the molecule `Cc1ccc(-n2cc(-c3ccccn3)nc2-c2ccc(-n3c(=O)[nH]c4cccnc43)cc2)cn1` [Example 95], it took 3.91 nM to reach half-maximal inhibition (IC50).

`COc1nc2cccnc2n1-c1ccc(-c2nc(-c3cscn3)cn2-c2ccc(C)nc2)cc1` [Example 96, 2-methoxy-3-(4-(1-(6-methylpyridin-3-yl)-4-(thiazol-4-yl)-1H-imidazol-2-yl)phenyl)-3H-imidazo[4,5-b]pyridine]: the IC50 was determined as 0.695 nM.

For the molecule `Cc1ccc(-n2cc(-c3cncs3)nc2-c2ccc(-n3c(C(C)C)nc4cccnc43)cc2)cn1` [Example 97], the IC50 is 1.96 nM.

Turning to `Cc1ccc(-n2cc(-c3cscn3)nc2-c2ccc(-n3c(C(C)C)nc4cccnc43)cc2)cn1` [Example 98, 2-isopropyl-3-(4-(1-(6-methylpyridin-3-yl)-4-(thiazol-4-yl)-1H-imidazol-2-yl)phenyl)-3H-imidazo[4,5-b]pyridine], the IC50 was 1.13 nM.

`CCOc1nc2cccnc2n1-c1ccc(-c2nc(-c3cscn3)cn2-c2ccc(C)nc2)cc1` [Example 100, 2-ethoxy-3-(4-(1-(6-methylpyridin-3-yl)-4-(thiazol-4-yl)-1H-imidazol-2-yl)phenyl)-3H-imidazo[4,5-b]pyridine] showed an IC50 of 1.31 nM.

`COc1ccc(-c2[nH]c(-c3cccs3)nc2-c2ccc(-n3ccc4cc(OC)ccc43)cc2)cc1` [Example 102, 5-methoxy-1-(4-(5-(4-methoxyphenyl)-2-(thiophen-2-yl)-1H-imidazol-4-yl)phenyl)-1H-indole] registered an IC50 of 15.8 nM.
